Test results as given in patent US10907219B2, “Compositions and methods for controlling cellular function” (STC.UNM, priority 2014, dated 2021).

Experiments:
[1] = Chemical stability of ABA-Fe molecules (HPLC); assay type: physicochemical; conditions: 100 μM, 50% HEPES/DMSO pH 7.4, 37° C., one hour
Method: Chemical stability of ABA-Fe molecules: 100 μM ABA-Fe (in 50% HEPES/DMSO buffer, pH=7.4) was incubated at 37° C. for one hour before HPLC detection. The percentages for molecule cleavage were quantified by the peak area of ABA out of the total peak area.
(§1) HPLC chromatograms were acquired using an ULTIMATE 3000 LC System (Thermo Fisher Scientific, Waltham, Mass.) with ACCLAIM 120 Å, C18, 3 μm analytical (4.6×100 mm) column (Thermo Fisher Scientific, Waltham, Mass.). Chromatographic conditions: eluent A: 0.1% v/v TFA in water; eluent B: 0.1% v/v TFA in acetonitrile. ABA in ethanol or ABA-HP in DMSO was eluted at a flow rate of 0.750 ml/min monitored at a wavelength of 260 nm. 0-12 min (linear): 95% A, 5% B to 5% A, 95% B; 12-15 min: 5% A, 95% B; 15-17 min (linear): 5% A, 95% B to 95% A, 5% B. Generation of ABA was quantified by the peak area of ABA out of the total peak area.

[2] = ABA-Fe reactivity and selectivity towards Fe^2+ (HPLC); assay type: physicochemical; conditions: 37° C., one hour
Method: ABA-Fe reactivity and selectivity towards Fe^2+: 100 μM ABA-Fe with 1 mM Fe^2+ (in 50% HEPES/DMSO buffer, pH=7.4), and 100 μM ABA-Fe with 1 mM Fe^3+ (in 50% HEPES/DMSO buffer, pH=7.4) were incubated at 37° C. for one hour before HPLC detection. The percentages for molecule cleavage were quantified by the peak area of ABA out of the total peak area.
as §1

[3] = tested on: HEK 293 EGFP reporter cells; assay: Cell stability of ABA-Fe molecules; assay type: cell-based
Method: Mammalian Cell Culture: HEK 293 EGFP reporter cells were cultured in Dulbecco's modified Eagle's medium (DMEM, GIBCO, Life Technologies, Carlsbad, Calif.) with 10% Fetal Bovine Serum (FBS, GIBCO, Life Technologies, Carlsbad, Calif.), 1× […] (100× from GIBCO, Life Technologies, Carlsbad, Calif.), and 1× Penicillin/Streptomycin (Pen/Strep, 100× from GIBCO, Life Technologies, Carlsbad, Calif.). Cells were plated with the starting concentration of 200,000 cells per well in a 24-well plate (Greiner Bio-One GmbH; Frickenhausen, Germany) for a day, and then were treated with either 10 μM of ABA-Fe and 20 μM of DFO, 10 μM of ABA-Fe only, or 10 μM of ABA-Fe and 100 μM of Fe^2+ aqueous solution.
Imagines for green fluorescence were taken for living cells every two hours after adding in those molecules by microscopy illumination system (Axio Observer; Carl Zeiss AG, Oberkochen, Germany). Each type of the experiment was carried out as duplex.

[4] = tested on: CHO cells transfected with ABA-inducible luciferase constructs; assay: ABA-inducible luciferase assay; assay type: cell-based; conditions: 10 μM (mixture 10 μM each), 24 hours

Description for transfected cells: A concern of using UV-triggered reactions in cells is phototoxicity.

For CC1=CC(=O)CC(C)(C)[C@@]1(O)/C=C/C(C)=C\C(=O)ONC(C)c1ccccc1 (stereo partly drawn) [Compound 8], the chemical stability [1] was “chemically stable”, the “selectivity towards Fe^2+ vs Fe^3+” value ([2]; 100 μM with 1 mM Fe^2+ or Fe^3+) was “exhibits selectivity” and the “reactivity (cleavage) towards Fe^2+” value ([2]; 100 μM with 1 mM Fe^2+) was “exhibits Fe^2+ reactivity”. The stability in cells [3] was “stable in cells”.
In the case of “dimethoxynitrosobenzaldehyde [DMNB-derived photoproduct]”, the toxicity (transfected cells) is reported as “does not cause observable toxicity”.
For CC1=CC(=O)CC(C)(C)C1(O)/C=C/C(C)=C/C(=O)O (single isomer, unassigned) [2-trans isomer], the “induced luciferase expression (activity of ABA isomers)” value [4] was “reduced activity”.
